# Legend:
# [1] = biological target: T1, CYP2B6 (Homo sapiens, UniProt P20813); test: CYP2B6-mediated bupropion hydroxylation in pooled human liver microsomes; assay type: in vitro ADME; details: up to 50 µM, without 30-min preincubation
# T1 construct: from tissue; host or cells: ultrapooled human liver microsomes
# T1 sequence (P20813 1-491): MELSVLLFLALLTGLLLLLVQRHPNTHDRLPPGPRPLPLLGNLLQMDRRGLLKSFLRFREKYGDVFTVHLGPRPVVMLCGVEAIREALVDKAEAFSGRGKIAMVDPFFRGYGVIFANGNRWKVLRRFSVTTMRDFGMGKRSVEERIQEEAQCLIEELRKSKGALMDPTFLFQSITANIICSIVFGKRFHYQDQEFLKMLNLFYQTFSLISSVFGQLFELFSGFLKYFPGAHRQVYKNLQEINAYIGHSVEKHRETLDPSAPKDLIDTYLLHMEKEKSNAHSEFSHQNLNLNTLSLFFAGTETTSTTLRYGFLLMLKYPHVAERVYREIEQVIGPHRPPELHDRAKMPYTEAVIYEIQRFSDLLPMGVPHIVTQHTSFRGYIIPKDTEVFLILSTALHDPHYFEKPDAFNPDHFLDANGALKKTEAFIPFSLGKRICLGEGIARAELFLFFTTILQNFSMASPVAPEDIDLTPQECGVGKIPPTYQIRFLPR
# Description: The inhibitory effects (IC50 values) of EAM-2201 on CYP2B6-catalyzed bupropion 4-hydroxylase activity were determined in ultrapooled human liver microsomes using LC-MS/MS [41]. Each incubation mixture was prepared in a total volume of 100 µL as follows: pooled human liver microsomes (5.2 pmol CYP), 1.0 mM NADPH, 10 mM magnesium chloride, 50 mM potassium phosphate buffer (pH 7.4), various concentrations of EAM-2201 in DMSO (final 0.1–50 µM, 0.5% DMSO) and CYP2B6-selective substrate and 50 µM bupropion. After a 3-min preincubation at 37 °C, reactions were initiated by adding NADPH, followed by incubation for 15 min at 37 °C in a shaking water bath. […] Aliquots (5 µL) of the diluted supernatants were analyzed by LC-MS/MS. […]
# The metabolites formed from CYP substrates were simultaneously quantified using our previously described LC-MS/MS method. […] Quantification was performed by selected reaction monitoring (SRM) of the [M + H]^+ ion and the related product ion for each metabolite: acetaminophen, 152.1 > 110.3; N-desethylamodiaquine, 328.1 > 283.0; 7-hydroxycoumarin, 163.0 > 107.2; 4-hydroxybupropion, 256.1 > 238.0; 4′-hydroxydiclofenac, 312.0 > 231.1; 4′-hydroxy-mephenytoin, 235.1 > 150.1; 1′-hydroxybufuralol, 278.1 > 186.1; 1′-hydroxymidazolam, 341.9 > 324.0; ^13C2,^15N-acetaminophen, 155.1 > 111.2; and d9-1′-hydroxybufuralol, 287.2 > 187.0. […]
# [2] = human liver microsomes; cited from earlier work
smiles,measurement,setting,value
"CCc1ccc(C(=O)c2cn(CCCCCF)c3ccccc23)c2ccccc12 [EAM-2201, (4-ethyl-1-naphthalenyl)[1-(5-fluoropentyl)-1H-indol-3-yl]-methanone]",inhibition of CYP2B6-mediated bupropion hydroxylation,[1],negligibly inhibited
same,number of metabolites,[2],37 metabolites
